Test results as given in US20230085307A1, “PYRIDAZINONE COMPOUND AND HERBICIDE” (NISSAN CHEMICAL CORPORATION, priority 2019, published 2023).

Key:
barnyard grass [1] = assay: Test Example 3: herbicidal effect by foliage application, Wagner pot (Table 18, symbol H); format: in vivo, barnyard grass (Echinochloa crus-galli); conditions: 320 g/ha
Outline: (§1)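 Plants were sown in alluvial soil held under 0.1–0.5 cm standing water and grown 14 days in a greenhouse at 25–30 °C. An emulsifiable formulation, water-diluted to the set dose, was then sprayed onto the foliage, and effects were scored three weeks later using previously defined criteria.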

Chinese sprangletop = assay: Test Example 3: herbicidal effect by foliage application, Wagner pot (Table 18, symbol D); format: in vivo, chinese sprangletop (Leptochloa chinensis); conditions: 320 g/ha
Outline: as §1

rice flat sedge = assay: Test Example 3: herbicidal effect by foliage application, Wagner pot (Table 18, symbol E); format: in vivo, rice flat sedge (Cyperus iria); conditions: 320 g/ha
Outline: as §1

southern crabgrass [2] = assay: Test Example 4: herbicidal effect by soil treatment (Table 19, symbol F); format: in vivo, southern crabgrass (Digitaria ciliaris); conditions: AAH 320 g/ha
Outline: (§2)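 Herbicidal effect was rated 3 weeks after treatment, using the scoring criteria of an earlier test. The compound, formulated as an emulsion and diluted in water to a set herbicide amount, had been sprayed uniformly on soil over freshly sown seeds. Growth took place in a greenhouse at 25° C. to 30° C.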

green foxtail [3] = assay: Test Example 4: herbicidal effect by soil treatment (Table 19, symbol G); format: in vivo, green foxtail (Setaria viridis); conditions: AAH 320 g/ha
Outline: as §2

barnyard grass [4] = assay: Test Example 4: herbicidal effect by soil treatment (Table 19, symbol H); format: in vivo, barnyard grass (Echinochloa crus-galli); conditions: AAH 320 g/ha
Outline: as §2

wild oat [5] = assay: Test Example 4: herbicidal effect by soil treatment (Table 19, symbol I); format: in vivo, wild oat (Avena fatua); conditions: AAH 320 g/ha
Outline: as §2

blackgrass [6] = assay: Test Example 4: herbicidal effect by soil treatment (Table 19, symbol J); format: in vivo, blackgrass (Alopecurus myosuroides); conditions: AAH 320 g/ha
Outline: as §2

Italian ryegrass [7] = assay: Test Example 4: herbicidal effect by soil treatment (Table 19, symbol K); format: in vivo, Italian ryegrass (Lolium multiflorum); conditions: AAH 320 g/ha
Outline: as §2

windgrass [8] = assay: Test Example 4: herbicidal effect by soil treatment (Table 19, symbol L); format: in vivo, windgrass (Apera spica-venti); conditions: AAH 320 g/ha
Outline: as §2

velvetleaf [9] = assay: Test Example 4: herbicidal effect by soil treatment (Table 19, symbol M); format: in vivo, velvetleaf (Abutilon theophrasti); conditions: AAH 320 g/ha
Outline: as §2

redroot pigweed [10] = assay: Test Example 4: herbicidal effect by soil treatment (Table 19, symbol N); format: in vivo, redroot pigweed (Amaranthus retroflexus); conditions: AAH 320 g/ha
Outline: as §2

lambsquarters [11] = assay: Test Example 4: herbicidal effect by soil treatment (Table 19, symbol O); format: in vivo, lambsquarters (Chenopodium album); conditions: AAH 320 g/ha
Outline: as §2

chickweed [12] = assay: Test Example 4: herbicidal effect by soil treatment (Table 19, symbol P); format: in vivo, common chickweed (Stellaria media); conditions: AAH 320 g/ha
Outline: as §2

false cleavers = assay: Test Example 4: herbicidal effect by soil treatment (Table 19, symbol Q); format: in vivo, false cleavers (Galium spurium); conditions: AAH 320 g/ha
Outline: as §2

persian speedwell [13] = assay: Test Example 4: herbicidal effect by soil treatment (Table 19, symbol R); format: in vivo, Persian speedwell (Veronica persica); conditions: AAH 320 g/ha
Outline: as §2

southern crabgrass [14] = assay: Test Example 5: herbicidal effect by foliage application, plastic box (Table 20, symbol F); format: in vivo, southern crabgrass (Digitaria ciliaris); conditions: foliage application, AAH 320 g/ha, three weeks after application
Outline: (§3)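 Foliar spray test: emulsion formulation diluted in water to a set application rate, sprayed onto 14-day-old plants raised in diluvial soil at 25° C to 30° C under glass. Both herbicidal effect and crop effect rated visually three weeks later.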

green foxtail [15] = assay: Test Example 5: herbicidal effect by foliage application, plastic box (Table 20, symbol G); format: in vivo, green foxtail (Setaria viridis); conditions: foliage application, AAH 320 g/ha, three weeks after application
Outline: as §3

barnyard grass [16] = assay: Test Example 5: herbicidal effect by foliage application, plastic box (Table 20, symbol H); format: in vivo, barnyard grass (Echinochloa crus-galli); conditions: foliage application, AAH 320 g/ha, three weeks after application
Outline: as §3

wild oat [17] = assay: Test Example 5: herbicidal effect by foliage application, plastic box (Table 20, symbol I); format: in vivo, wild oat (Avena fatua); conditions: foliage application, AAH 320 g/ha, three weeks after application
Outline: as §3

blackgrass [18] = assay: Test Example 5: herbicidal effect by foliage application, plastic box (Table 20, symbol J); format: in vivo, blackgrass (Alopecurus myosuroides); conditions: foliage application, AAH 320 g/ha, three weeks after application
Outline: as §3

Italian ryegrass [19] = assay: Test Example 5: herbicidal effect by foliage application, plastic box (Table 20, symbol K); format: in vivo, Italian ryegrass (Lolium multiflorum); conditions: foliage application, AAH 320 g/ha, three weeks after application
Outline: as §3

windgrass [20] = assay: Test Example 5: herbicidal effect by foliage application, plastic box (Table 20, symbol L); format: in vivo, windgrass (Apera spica-venti); conditions: foliage application, AAH 320 g/ha, three weeks after application
Outline: as §3

velvetleaf [21] = assay: Test Example 5: herbicidal effect by foliage application, plastic box (Table 20, symbol M); format: in vivo, velvetleaf (Abutilon theophrasti); conditions: foliage application, AAH 320 g/ha, three weeks after application
Outline: as §3

redroot pigweed [22] = assay: Test Example 5: herbicidal effect by foliage application, plastic box (Table 20, symbol N); format: in vivo, redroot pigweed (Amaranthus retroflexus); conditions: foliage application, AAH 320 g/ha, three weeks after application
Outline: as §3

lambsquarters [23] = assay: Test Example 5: herbicidal effect by foliage application, plastic box (Table 20, symbol O); format: in vivo, lambsquarters (Chenopodium album); conditions: foliage application, AAH 320 g/ha, three weeks after application
Outline: as §3

chickweed [24] = assay: Test Example 5: herbicidal effect by foliage application, plastic box (Table 20, symbol P); format: in vivo, common chickweed (Stellaria media); conditions: foliage application, AAH 320 g/ha, three weeks after application
Outline: as §3

persian speedwell [25] = assay: Test Example 5: herbicidal effect by foliage application, plastic box (Table 20, symbol R); format: in vivo, Persian speedwell (Veronica persica); conditions: foliage application, AAH 320 g/ha, three weeks after application
Outline: as §3

CCCC(=O)Oc1c(OC)nn(C)c(=O)c1-c1c(-c2ccc(F)c(C)c2)sc2ccccc12 [1-175]
herbicidal effect on H (barnyard grass), rating 0-5 (barnyard grass [1]): 0 (Herbicidal rate of 5% or less (almost no effect)) | herbicidal effect on D (Chinese sprangletop), rating 0-5 (Chinese sprangletop): 0 (Herbicidal rate of 5% or less (almost no effect)) | herbicidal effect on E (rice flat sedge), rating 0-5 (rice flat sedge): 3 (Herbicidal rate of 40% or more and less than 70%) | F: southern crabgrass, herbicidal effect rating (southern crabgrass [2]): 0 (Herbicidal rate of 5% or less (almost no effect)) | G: green foxtail, herbicidal effect rating (green foxtail [3]): 1 (Herbicidal rate of 5% or more and less than 20%) | H: barnyard grass, herbicidal effect rating (barnyard grass [4]): 0 (Herbicidal rate of 5% or less (almost no effect)) | I: wild oat, herbicidal effect rating (wild oat [5]): 0 (Herbicidal rate of 5% or less (almost no effect)) | J: blackgrass, herbicidal effect rating (blackgrass [6]): 0 (Herbicidal rate of 5% or less (almost no effect)) | K: Italian ryegrass, herbicidal effect rating (Italian ryegrass [7]): 2 (Herbicidal rate of 20% or more and less than 40%) | L: windgrass, herbicidal effect rating (windgrass [8]): 1 (Herbicidal rate of 5% or more and less than 20%) | M: velvetleaf, herbicidal effect rating (velvetleaf [9]): 3 (Herbicidal rate of 40% or more and less than 70%) | N: redroot pigweed, herbicidal effect rating (redroot pigweed [10]): 4 (Herbicidal rate of 70% or more and less than 90%) | O: lambsquarters, herbicidal effect rating (lambsquarters [11]): 4 (Herbicidal rate of 70% or more and less than 90%) | P: chickweed, herbicidal effect rating (chickweed [12]): 0 (Herbicidal rate of 5% or less (almost no effect)) | Q: false cleavers, herbicidal effect rating (false cleavers): 0 (Herbicidal rate of 5% or less (almost no effect)) | R: persian speedwell, herbicidal effect rating (persian speedwell [13]): 0 (Herbicidal rate of 5% or less (almost no effect)) | F: southern crabgrass, herbicidal effect (southern crabgrass [14]): 0 (Herbicidal rate of 5% or less (almost no effect)) | G: green foxtail, herbicidal effect (green foxtail [15]): 0 (Herbicidal rate of 5% or less (almost no effect)) | H: barnyard grass, herbicidal effect (barnyard grass [16]): 0 (Herbicidal rate of 5% or less (almost no effect)) | I: wild oat, herbicidal effect (wild oat [17]): 0 (Herbicidal rate of 5% or less (almost no effect)) | J: blackgrass, herbicidal effect (blackgrass [18]): 0 (Herbicidal rate of 5% or less (almost no effect)) | K: Italian ryegrass, herbicidal effect (Italian ryegrass [19]): 0 (Herbicidal rate of 5% or less (almost no effect)) | L: windgrass, herbicidal effect (windgrass [20]): 0 (Herbicidal rate of 5% or less (almost no effect)) | M: velvetleaf, herbicidal effect (velvetleaf [21]): 3 (Herbicidal rate of 40% or more and less than 70%) | N: redroot pigweed, herbicidal effect (redroot pigweed [22]): 0 (Herbicidal rate of 5% or less (almost no effect)) | O: lambsquarters, herbicidal effect (lambsquarters [23]): 0 (Herbicidal rate of 5% or less (almost no effect)) | P: chickweed, herbicidal effect (chickweed [24]): 5 (Herbicidal rate of 90% or more (almost completely withered)) | R: persian speedwell, herbicidal effect (persian speedwell [25]): 4 (Herbicidal rate of 70% or more and less than 90%)
